The values below are quoted from earlier work in patent US20210170044A1, “SYSTEMS AND METHODS FOR LYSOSOME INDUCED IMMUNOGENIC CELL DEATH” (Antigenesis LLC, priority 2017, published 2021).

The data set concerns advanced hepatocellular carcinoma. To be noted: patients with advanced hepatocellular carcinoma receiving 5-fluorouracil; pravastatin as well vs control group.

Consider `O=c1[nH]cc(F)c(=O)[nH]1` [5-fluoroucacil], for which the median survival time was 9 months.
